# From US10149876B2, “Tripterygium wilfordii extracts to overcome chemotherapy resistance” (WESTERN UNIVERSITY OF HEALTH SCIENCES, priority 2012, dated 2018)
# Where “and” joins values, the source holds several entries; their conditions need not be identical. Identical values can stand only once. Like-named read-outs stand apart in the source and are kept apart here.
# Assays:
# K562 cells = experiment: SRB cell viability assay, daunorubicin-sensitive K562 cells; format: cell-based, human; details: Homo sapiens, K562, read-out: IC50 of drug when cells treated with drug only
# Experimental: Cell culture of the above cell lines was performed as described in Example 2, except that 5,000, rather than 3,000 cells were plated per well for the K562, K562/Dox, BT474, SkBr3 lines.
# Table 17 also contains the serially-diluted concentrations of drugs that each cell line was tested against.
# Table 36 reports the cell viability data relating to pre-treatment with LTG-E prior to daunorubicin treatment. Table 37 reports control data obtained from cells that were not pre-treated with LGT-E prior to daunorubicin treatment. FIG. 15 summarizes the data of Tables 36 and 37 in a graphical format.
# K562/Dox cells = experiment: SRB cell viability assay, daunorubicin-resistant K562/Dox cells; format: cell-based, human; details: Homo sapiens
structure (smiles),measurement,setting,value
COc1cccc2c1C(=O)c1c(O)c3c(c(O)c1C2=O)C[C@@](O)(C(C)=O)C[C@@H]3O[C@H]1C[C@H](N)[C@H](O)[C@H](C)O1 [daunorubicin],IC50,K562 cells,1.05 µM and 0.55 µg/mL
same,IC50,"K562/Dox cells; K562, read-out: IC50 of drug when cells pre-treated with Chemosensitizing Agent before drug treatment",6.53 µM and 3.45 µg/mL
same,IC50,"K562/Dox cells; K562, read-out: IC50 of drug when cells treated with drug only",32.6 µM and 17.2 µg/mL
